# Measured values reported in patent US5604219A, “Indolocarbazole derivatives that stimulate platelet production” (Kyowa Hakko Kogyo Co., Ltd., priority 1994, dated 1997).
# Experiments:
# [1] = tested on: bone marrow cells (megakaryocyte colony formation); test: Megakaryocyte colony formation-stimulating activity (Test Example 1); type: cell-based, BALB/c mouse; details: with IL-3 (100 U/ml), 7 days, control (IL-3 alone) defined as 100
# Procedure: An eight-weeks-old BALB/c mouse was killed. Its femurs and cervical vertebrae were taken out, and both end sections thereof were cut off. Bone marrow cells were collected from the pieces cut off from the femurs and cervical vertebrae using a syringe containing IMDM (430-2200EA prepared by Gibco Co.), and then blown into a test tube. The test tube was allowed to stand for 5 minutes, and the supernatant was collected with a piper. To a reaction mixture comprising the bone marrow cells (50,000 cells), bovine serum albumin (2%: A4508 made by Sigma Co.), transferrin (600 μg/ml: 652202 made by Boehringer Mannheim Co.), IL-3 (100 U/ml), cholesterol (16 μg/ml: 036-0641 made by Wako Co.) and agar (0.6%: 0142-02 made by Difco Laboratories) were separately added the test compounds at various concentrations, and 1 ml each of the mixtures was put into a 35-mm dish (Lux Co.), followed by incubation under the conditions of 37° C. 5% CO2 and a humidity of 95% or more for 7 days. Separately, IL-3 alone was added to the bone marrow cells to prepare a control. After the incubation was completed, the agar was dried over a filter paper (1001-055 made by Whatman Co.) and then fixed with 2.5% glutaraldehyde, followed by acetylcholinesterase staining (ACHE staining).
# The ACHE staining was carried out by the method described below.
# ACHE staining: To each sample was added a solution comprising 0.67 mg/ml acetylthiocholine iodide, 2.94 mg/ml sodium citrate, 7.5 mg/ml copper (II) sulfate and 1.65 mg/ml potassium ferricyanide, and the mixture was allowed to stand at room temperature in the dark for 4-6 hours.
# A group of 4 or more megakaryocytes which were stained reddish brown was regarded as a colony, and the number of colonies per dish was calculated using a microscope. The results are shown in Table 2 as relative values to the control.
# platelets = test: Platelet production-stimulating activity in mice (Test Example 2); type: in vivo, male BALB/c mice; details: intraperitoneal, once a day for 5 days, platelets counted on day 15, A test group, B control group
# Excerpt: A test compound was intraperitoneally administered to four 7-week-old male BALB/c mice per group once a day for consecutive 5 days (day 1 to day 5). A control group (4 mice per group) received only the solvent (5% Tween water). The blood was collected from the fundus oculi vein of each animal on the 15th day from the start of administration (day 15), and the number of the platelets was counted with a microcell counter (Model CC-180A, manufactured by Toa Iryo Denshi Co.). The rate of increase of the number of platelets in the test group (average) over the control (average) was calculated according to the following formula to evaluate the effect of the test compound.
# Rate of Increase = A/B × 100
# A: the number of platelets in test group
# B: the number of platelets in control group
smiles,measurement,setting,value
CN[C@@H]1C[C@H]2O[C@@](C)([C@@H]1OC)n1c3ccccc3c3c4c(c5c6cc(C=NN(C)C)ccc6n2c5c31)C(=O)N(C)C4 [Compound 28],"Rel. Value (number of megakaryocyte colonies per dish, relative to control)",[1]; Concn. 1 nM,134
same,"Rate of increase (number of platelets, A/B × 100)",platelets; 12.5 mg/kg,156%
CN[C@@H]1C[C@H]2O[C@@](C)([C@@H]1OC)n1c3ccccc3c3c4c(c5c6cc(CSCCN(C)C)ccc6n2c5c31)C(=O)N(C)C4 [Compound 30],"Rel. Value (number of megakaryocyte colonies per dish, relative to control)",[1]; Concn. 1 nM,116
CN[C@@H]1C[C@H]2O[C@@](C)([C@@H]1OC)n1c3ccc(OC(=O)C(C)(C)C)cc3c3c4c(c5c6cc(OC(=O)C(C)(C)C)ccc6n2c5c31)C(=O)N(C)C4 [Compound 22],"Rate of increase (number of platelets, A/B × 100)",platelets; 50 mg/kg,168%
CN[C@@H]1C[C@H]2O[C@@](C)([C@@H]1OC)n1c3ccccc3c3c4c(c5c6cc(C)ccc6n2c5c31)C(=O)N(C)C4 [Compound 8],"Rel. Value (number of megakaryocyte colonies per dish, relative to control)",[1]; Concn. 10 nM,157
same,"Rate of increase (number of platelets, A/B × 100)",platelets; 25 mg/kg,134%
CN[C@@H]1C[C@H]2O[C@@](C)([C@@H]1OC)n1c3ccccc3c3c4c(c5c6ccccc6n2c5c31)C(=O)N(CO)C4 [Compound 1],"Rel. Value (number of megakaryocyte colonies per dish, relative to control)",[1]; Concn. 1 nM,129
CN[C@@H]1C[C@H]2O[C@@](C)([C@@H]1OC)n1c3ccccc3c3c4c(c5c6cc(N)ccc6n2c5c31)C(=O)N(C)C4 [Compound 12],"Rel. Value (number of megakaryocyte colonies per dish, relative to control)",[1]; Concn. 10 nM,126
CN[C@@H]1C[C@H]2O[C@@](C)([C@@H]1OC)n1c3ccc(N)cc3c3c4c(c5c6cc(N)ccc6n2c5c31)C(=O)N(C)C4 [Compound 16],"Rel. Value (number of megakaryocyte colonies per dish, relative to control)",[1]; Concn. 1 nM,125
